In patent US4812458A, “6,7-disubstituted-2,3-dihydroxyquinoxaline compounds, pharmaceutical compositions thereof, and their use as neuroleptics” (A/S Ferrosan, priority 1987, dated 1989):
≈ marks a conversion by molar mass, not a printed value.

Key:
[1] = biological target: quisqualate type receptors (rat cerebral cortical membrane homogenate); assay: 3H-AMPA binding (displacement of 3H-AMPA from the quisqualate type receptors); conditions: displacement of 50% of specific 3H-AMPA binding; 5 nM 3H-AMPA, 0° C., 30 min, pH 7.1
Method: (§1) The pharmacological properties of the compounds of the present invention can be illustrated by determining their capability for displacing radioactively labelled 2-amino-3-hydroxy-5-methyl-4-isoxazolepropionic acid (AMPA) from the quisqualate type receptors.
The displacement activity of the compounds may be shown by determining the IC50 value which represents the concentration (μg/ml) which causes a displacement of 50% of the specific binding of ^3 H-AMPA.
500 μl of thawed rat cerebal cortical membrane homogenate in Tris-HCl (30 mM), CaCl2 (2.5 mM) and KSCN ([…]) pH 7.1 were incubated at 0° C. for 30 min. with 25 μl ^3 H-AMPA (5 nM final concentration) and the test compound and buffer. Nonspecific binding was determined by incubation with L-glutamic acid (600 μM final concentration). The binding reaction was terminated by adding 5 ml of ice-cold buffer followed by filtration through Whatman GF/C glass fibre filters and 2×5 ml wash with ice-cold buffer. Bound radioactivity was measured by scintillation counting. IC50 was determined by Hill analysis of at least four concentrations of test compound.

[2] = tested on: quisqualic acid stimulated Na+-efflux from rat striatal slices; assay: Antagonism of quisqualic acid induced 22Na+-release; format: cell-based; conditions: concentration reducing quisqualic acid (2 μg/ml) stimulated 22Na+ efflux rate by 50%
Method: as §1
The antagonism is measured by determining the EC50 value which represents the concentration which reduces the rate of quisqualic acid stimulated sodium efflux by 50%.
Antagonism of quisqualic acid induced ^22 Na^+ -release
Slices from rat striatum were preincubated with ^22 Na^+ for 30 min. After the ^22 Na^+ loading period, the slices were successively and every minute transferred through a series of tubes, each containing 1.5 ml of a non-radioactive physiological solution saturated with O2, with the help of a basket shaped sieve. Quisqualic acid (2 μg/ml) was present in the last 5 tubes and the compound to be tested was present in the same 5 tubes plus 3 tubes before. The amount of radioactivity in each washout tube as well as that left in the slices at the end of the experiment was measured by scintillation counting. EC50 -values were calculated by Hill analysis from at least three different concentrations of test compound as the concentration of test compound which reduces the efflux rate of ^22 Na^+ -ions to 50% of the efflux rate in the absence of test compound.

| SMILES | IC50 [1] [µg/mL] | EC50 [2] [µg/mL] |
| --- | --- | --- |
| N#Cc1cc2nc(O)c(O)nc2cc1[N+](=O)[O-] [Example 2, 6-Cyano-2,3-dihydroxy-7-nitroquinoxaline] | 0.06 (≈ 0.258 µM) | 0.7 (≈ 3.02 µM) |
| [N-]=[N+]=Nc1cc2nc(O)c(O)nc2cc1[N+](=O)[O-] [Example 3, 6-Azido-2,3-dihydroxy-7-nitroquinoxaline] | 0.26 (≈ 1.05 µM) | 3 (≈ 12.1 µM) |
| N#Cc1cc2nc(O)c(O)nc2cc1C(F)(F)F [Example 5, 6-Cyano-2,3-dihydroxy-7-trifluoromethylquinoxaline] | 0.39 (≈ 1.53 µM) | – |

Now from value to compound:

| IC50 [1] [µg/mL] | EC50 [2] [µg/mL] | SMILES |
| --- | --- | --- |
| 0.43 (≈ 1.78 µM) | 3 (≈ 12.4 µM) | O=[N+]([O-])c1cc2nc(O)c(O)nc2cc1Cl [Example 7, 6-Chloro-2,3-dihydroxy-7-nitroquinoxaline] |
| 0.82 (≈ 3.7 µM) | – | N#Cc1cc2nc(O)c(O)nc2cc1Cl [Example 8, 6-Chloro-7-cyano-2,3-dihydroxyquinoxaline] |
